Assay results reported in patent US11104677B2, “Toll-like receptor 9 antagonists” (FRAUNHOFER-GESELLSCHAFT ZUR FÖRDERUNG DER ANGEWANDTEN …, priority 2015, dated 2021).
pIC50: −log10 of the molar value.

target: T1, TLR9 (Homo sapiens, UniProt Q9NR96); test: cell-based reporter assay (NIH 3T3 reporter cell line expressing TLR9, NF-kB driven SEAP, stimulated with CpG ODN 2216); details: FIG. 3; 5 μM ODN 2216, 0.12 μM-7.8 μM of antagonist
T1 construct: expressed in transfected cells; host or cells: NIH 3T3 fibroblasts (mouse), stably transfected, NF-kB driven SEAP reporter
T1 sequence (Q9NR96 26-1032): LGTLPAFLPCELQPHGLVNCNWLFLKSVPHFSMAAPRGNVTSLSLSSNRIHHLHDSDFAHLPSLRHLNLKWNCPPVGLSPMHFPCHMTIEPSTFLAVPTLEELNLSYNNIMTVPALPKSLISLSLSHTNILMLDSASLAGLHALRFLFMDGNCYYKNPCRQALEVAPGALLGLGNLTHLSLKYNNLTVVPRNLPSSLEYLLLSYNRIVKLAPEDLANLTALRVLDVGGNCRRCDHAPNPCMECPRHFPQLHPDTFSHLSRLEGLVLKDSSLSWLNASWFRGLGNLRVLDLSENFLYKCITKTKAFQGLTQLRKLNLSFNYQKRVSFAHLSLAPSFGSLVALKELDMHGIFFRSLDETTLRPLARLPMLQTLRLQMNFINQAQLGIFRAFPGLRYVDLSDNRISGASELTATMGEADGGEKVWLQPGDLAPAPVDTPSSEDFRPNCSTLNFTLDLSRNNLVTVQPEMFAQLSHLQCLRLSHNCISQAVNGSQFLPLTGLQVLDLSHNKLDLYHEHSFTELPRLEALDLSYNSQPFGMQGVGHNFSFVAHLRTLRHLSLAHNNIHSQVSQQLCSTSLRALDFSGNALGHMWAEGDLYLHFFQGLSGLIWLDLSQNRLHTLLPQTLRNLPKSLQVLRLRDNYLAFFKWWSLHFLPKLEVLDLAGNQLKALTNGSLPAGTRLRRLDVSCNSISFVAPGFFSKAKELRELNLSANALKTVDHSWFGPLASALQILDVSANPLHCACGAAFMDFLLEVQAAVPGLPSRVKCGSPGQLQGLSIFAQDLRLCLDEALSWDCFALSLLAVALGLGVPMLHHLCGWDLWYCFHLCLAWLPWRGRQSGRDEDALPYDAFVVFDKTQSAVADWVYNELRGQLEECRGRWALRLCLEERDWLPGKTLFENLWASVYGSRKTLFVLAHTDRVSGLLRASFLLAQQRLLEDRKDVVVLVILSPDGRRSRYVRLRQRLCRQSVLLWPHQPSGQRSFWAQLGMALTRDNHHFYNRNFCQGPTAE
Method: In context with the present invention, the ‘IC50 value’ is the half maximum inhibitory concentration which is a measure of the effectiveness of a substance inhibiting the function of the TLR9. The IC50 value can be determined by a functional antagonist assay or a competition binding assay. Preferably, the IC50 value is determined by the cell-based reporter assay in section 3, below, of the examples.
A cell based test-system that allows PAMPs to be identified and differentiated via pattern recognition receptors (PRRs) in a reporter gene assay was used (DE 10 2006 031 483, EP 2 041 172). For this assay human PRRs and co-receptors were stably transfected and expressed in NIH 3T3 fibroblasts. This cell line expresses no other PRRs and contains a reporter gene which is activated by PRR-activation. The induction of receptor complexes by their ligands leads, after a signalling cascade, to an activation of transcription factor NF-kB, which regulates the expression of an additional integrated reporter gene, a secreted alkaline phosphatase (SEAP) (Burger-Kentischer, A.; Abele, I. S.; Finkelmeier, D.; Wiesmüller, K.-H.; Rupp, S., A new cell-based innate immune receptor assay for the examination of receptor activity, ligand specificity, signalling pathways and the detection of pyrogens. J. Immunol. Methods 2010, 358 (1), 93-103).
This test system mimics elements of the innate human immune system and can selectively recognize a large number of PAMPs with high sensitivity. Consequently, the PRR-specific cell-based high-throughput feature of the reporter cell lines will provide a fast, flexible and convenient means for lead compound screening in the pharmaceutical drug development fields. For the in vitro screening of the top candidates identified at IDR, the Fraunhofer IGB used this cell-based reporter system to identify TLR9 antagonists in order to determine their activity as well their biocompatibility. Within a first step the NIH3T3 cell line expressing TLR9 was used to measure the inhibitory effect of the TLR9 antagonists.
For the experiment the reporter cell line expressing TL9 was plated in 96-well cell culture plates at a density of 0.3×10^5 cells in DMEM media supplemented with 10% FCS (Invitrogen), 1% L-glutamine (200 mM Invitrogen) and 1% Penicillin-Streptomycin (PenStrep: 100×, Invitrogen). The cells were incubated for 16 h to grow adherent monolayers at 37° C. in a 5% saturated CO2 humidified atmosphere. After overnight incubation, the media was removed and replaced by DMEM medium supplemented with 1% PenStrep, 1% L-glutamine and 0.5% FCS. The media change is important to avoid a unspecific background signal, caused by active remaining phosphatases present in the FCS. The cells are then stimulated with a specific ligand non-methylated CpG ODN 2216 agonist (Invivogen) and the potential antagonists using different concentrations, namely within a range of concentrations of the potential antagonists starting with 0.025 μM (for the antagonist with the highest activity) up to 14 mM for the antagonists with lowest activities.
The ODN ligand has the sequence 5′-ggGGGACGA:TCGTCgggggg-3′ (SEQ ID No. 1). Those represented by capital letters are phosphodiesters, and those in small letters are phosphorothioate. The Palindrome is underlined.
The cells were again incubated in a humidified atmosphere for 16h leading to the expression or reduced expression of SEAP and its secretion into the media. Binding of the antagonist leads to a block of the TLR9, resulting in no or in a reduced expression of the reporter gene (SEAP). Therefore, 50 μl supernatant were taken from the cells and transferred into a 96-well PS microplate flat bottom (Greiner BIO-ONE). The enzyme substrate reaction was initiated by adding 50 μl of the specific substrate. SEAP catalyses the hydrolysis of pNPP to the final product para-nitrophenol (yellow), which can be detected in a photometric analysis using an UV-VIS reader at 405 nm. […]

| ODN2216 signal | Compound |
| --- | --- |
| dose dependent reduction of the signal | c1ccc(-n2cc(CNCCCN3CCOCC3)c(-c3cc4ccccc4o3)n2)cc1 [T5570245] |

same assay, conditions: FIG. 3; 5 μM ODN 2216, 0.12 μM-7.8 μM of antagonist; read-out: IC50 value

| pIC50 | Compound |
| --- | --- |
| 6.10 | c1ccc(-n2cc(CNCCCN3CCOCC3)c(-c3cc4ccccc4o3)n2)cc1 [T5570245] |

same assay, conditions: Table 5; first 30 candidates; ODN 2216 agonist; n≥3

| Compound | IC50 in [μM] |
| --- | --- |
| c1ccc(-c2cc(-c3cccnc3)nc3ccccc23)cc1 [T5762626, n1c2c(cccc2)c(cc1-c1cccnc1)-c1ccccc1] | agonist |
| Cc1ccc(N2CCN(/N=C/C=C/c3ccccc3)CC2)cc1 [T0505-2171, N(/N1CCN(CC1)c1ccc(cc1)C)═C\C═C\c1ccccc1] | agonist |

same assay, conditions: Table 5; first 30 candidates; ODN 2216 agonist; n≥3; read-out: IC50 in

| Compound | pIC50 |
| --- | --- |
| COc1ccc(-n2c(-c3ccncc3)nc3ccccc32)cc1 [T5771455, O(C)c1ccc(-n2c3c(nc2-c2ccncc2)cccc3)cc1] | 4.92 |
| c1ccc(-c2nc3ccccc3nc2-c2ccccc2)cc1 [T0504-1257, n1c2c(nc(c1-c1ccccc1)-c1ccccc1)cccc2] | 2.70 |
| CN(C)c1ccc(/C=C/c2ccc3ccccc3n2)cc1 [T0506-4124, n1c2c(ccc1\C═C\c1ccc(N(C)C)cc1)cccc2] | 3.51 |
| COc1ccc(CCNc2ncnc3c2oc2ccccc23)cc1OC [T5666774, o1c2c(ncnc2NCCc2cc(OC)c(OC)cc2)c2c1cccc2] | 4.52 |
| COc1ccc(/N=C/c2ccc3ncccc3c2)cc1 [T0501-0693, O(C)c1ccc(\N═C\c2cc3c(nccc3)cc2)cc1] | 4.80 |
| c1ccc2c(NCCNc3ncnc4ccccc34)cccc2c1 [T5807811, n1cnc2c(cccc2)c1NCCNc1c2c(ccc1)cccc2] | 4.24 |
| COc1ccc(OCCOc2cccc3cccnc23)cc1 [T5771955, O(CCOc1ccc(OC)cc1)c1c2ncccc2ccc1] | 3.19 |
| COc1ccc2c(-c3ccccc3)cc(N3CCOCC3)nc2c1 [T0513-5752, O1CCN(CC1)c1nc2c(ccc(OC)c2)c(c1)-c1ccccc1] | 5.11 |
| C(=C\c1ccc2ccccc2n1)/c1ccc(N2CCOCC2)cc1 [T6549007, O1CCN(CC1)c1ccc(cc1)\C═C\c1nc2c(cc1)cccc2] | 2.36 |
| C(=C\c1ccc2ccccc2n1)/c1ccc(-n2ccnc2)cc1 [T5500062, n1c2c(ccc1\C═C\c1ccc(-n3ccnc3)cc1)cccc2] | 3.11 |
| c1ccc(N2CCN(c3ccc4ccccc4n3)CC2)cc1 [T6495030, n1c2c(ccc1N1CCN(CC1)c1ccccc1)cccc2] | 3.66 |
| COc1ccc(/C=N/c2ccc3nc(C)ccc3c2)cc1 [T0501-1111, O(C)c1ccc(cc1)\C═N\c1cc2c(nc(cc2)C)cc1] | 3.31 |
| c1ccc(OCCn2c(-c3ccco3)nc3ccccc32)cc1 [T5456813, o1cccc1-c1nc2c(n1CCOc1ccccc1)cccc2] | 4.14 |
| COc1ccc(/C=C/c2ccc3ccccc3n2)cc1OC [T6895608, O(C)c1cc(ccc1OC)\C═C\c1nc2c(cc1)cccc2] | 5.05 |
| COc1ccc2nc3c(nc2c1)-c1cccc2cccc-3c12 [T0504-1221, O(C)c1cc2nc3-c4c5c(-c3nc2cc1)cccc5ccc4] | 4.18 |
| Cc1cc(-c2ccc(-n3ccnc3)cc2)nc2ccccc12 [T5803292, n1c2c(cccc2)c(cc1-c1ccc(-n2ccnc2)cc1)C] | 2.37 |
| COc1cccc(OCCCCn2cnc3ccccc32)c1 [T6416309, O(CCCCn1c2c(nc1)cccc2)c1cc(OC)ccc1] | 4.88 |
| COCCNc1ncnc2c1c(-c1ccccc1)cn2-c1ccc(OC)cc1 [T6015017, O(C)c1ccc(-n2cc(c3c2ncnc3NCCOC)-c2ccccc2)cc1] | 2.69 |
| COc1ccc(/C=C/c2ccc3ccccc3n2)c(OC)c1 [T5713724, O(C)c1cc(OC)ccc1\C═C\c1nc2c(cc1)cccc2] | 4.80 |
| COc1ccc(CCN(C)c2ncnc3c2oc2ccccc23)cc1OC [T0519-4581, o1c2c(ncnc2N(CCc2cc(OC)c(OC)cc2)C)c2c1cccc2] | 4.82 |
| COc1ccccc1N1CCN(c2ccc3ccccc3n2)CC1 [T5547436, O(C)c1ccccc1N1CCN(CC1)c1nc2c(cc1)cccc2] | 2.94 |
| CCOc1ccccc1OCCOc1cccc2cccnc12 [T0513-2251, O(CCOc1c2ncccc2ccc1)c1ccccc1OCC] | 2.97 |
| c1ccc(-c2cc(-c3ccncc3)nc3ccccc23)cc1 [T6306924, n1c2c(cccc2)c(cc1-c1ccncc1)-c1ccccc1] | 3.06 |

same assay, conditions: in the presence of 5 μM of the ODN 2216 agonist; read-out: IC50 in

| pIC50 | Compound |
| --- | --- |
| 5.19 | CC(C)(c1ccccc1)c1ccc(OCCCNCCN2CCOCC2)cc1 [T5793071] |
| 5.20 | COc1ccc(CN2CCN(Cc3c(-c4ccccc4)nc4ccccn34)CC2)cc1OC [T5635793] |
| 7.27 | COc1cc2nc(-c3ccccc3)nc(N3CCN(CCN4CCCC4)CC3)c2cc1OC [T5669070] |
| 5.12 | COc1ccc(-c2nn(-c3ccccc3)cc2CNCc2ccccc2CN2CCOCC2)cc1OC [T6083277] |
| 5.73 | CCCN1CCC(NCc2cn(-c3ccccc3)nc2-c2ccc3c(c2)OCCO3)CC1 [T5587050] |
| 5.50 | COc1ccc(-c2nn(-c3ccccc3)cc2CNCc2ccccc2CN2CCOCC2)cc1 [T5571341] |
| 5.12 | c1ccc(Cn2cc(CNCc3ccc(CN4CCOCC4)cc3)c(-c3cccnc3)n2)cc1 [T6216617] |
| 5.42 | Clc1ccc(-c2nn(Cc3ccccc3)cc2CN2CCN(CCN3CCCC3)CC2)cc1 [T5535483] |
| 5.80 | c1ccc(CN2CCN(c3ccnc(N4CCN(Cc5ccccc5)CC4)n3)CC2)cc1 [T5453081] |
| 6.70 | CN(C)CCCNCc1cn(-c2ccccc2)nc1-c1ccc2c(c1)OCCO2 [T5581953] |
| 5.50 | c1ccc(-n2cc(CNCCN3CCCC3)c(-c3ccc4c(c3)OCCO4)n2)cc1 [T5581956] |
| 5.79 | COc1cc(CNC2CCN(Cc3ccccc3)CC2)ccc1OCc1c(C)noc1C [T5364934] |
| 5.84 | CCN1CCC(NCc2cn(-c3ccccc3)nc2-c2ccc3c(c2)OCCO3)CC1 [T5581955] |
| 6.05 | Clc1ccc(CN2CCC(NCc3ccc(-n4ccnc4)cc3)CC2)cc1 [T6683896] |
| 5.75 | CCN1CCC(NCc2ccc(-n3cnc4ccccc43)cc2)CC1 [T5820428] |
| 6.02 | COc1cc(CN2CCN(CCN3CCCC3)CC2)ccc1OCc1ccc(Cl)cc1 [T5428933] |
| 6.09 | c1ccc(-n2cc(CNCCCN3CCOCC3)c(-c3cc4ccccc4o3)n2)cc1 [T5570245] |
